Reference: PubChem BioAssay (NCI)
Several values for one entry are separate records, joined by “and”; a condition that tells them apart may be missing. Identical values can stand only once.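 In this assay, cells in 96-well plates receive the compound at five concentrations for 48 hours. Endpoints are linearly interpolated between the surrounding concentrations. GI50 is the concentration that inhibits growth by half. The concentration for full growth arrest is given as TGI.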

Tests used:
Test in all cases: NCI-60 cell line screen, 48 h
[1] = system: SK-MEL-2 melanoma
[2] = system: A498 renal
[3] = system: HCT-15 colon
[4] = system: SN12C renal
[5] = system: TK-10 renal
[6] = system: LXFL 529 NSCLC
[7] = system: MOLT-4 leukemia
[8] = system: HOP-62 NSCLC
[9] = system: NCI/ADR-RES ovarian

SMILES	TGI [1]	TGI [2]	TGI [3]	TGI [4]	TGI [5]	TGI [6] [µM]	TGI [7]	TGI [8]	GI50 [9]	TGI [9]	GI50 [1]	GI50 [2]	GI50 [3]	GI50 [4]	GI50 [5]	GI50 [7]	GI50 [8]
CN1C(c2ccccc2)CC(C)(O)CC1c1ccccc1 (stereo unspecified)	> 100 µM	> 100 µM	> 100 µM	> 100 µM	> 100 µM	> 100	> 100 µM	> 100 µM	–	–	–	–	–	–	–	–	–
C[C@@H]1CC[C@H]2[C@@H](C)C(OC/C=C/COC3O[C@@H]4O[C@@]5(C)CC[C@H]6[C@H](C)CC[C@@H]([C@H]3C)[C@@]46OO5)O[C@@H]3O[C@@]4(C)CC[C@@H]1[C@]32OO4 (stereo partly specified)	> 100 µM	> 100 µM	> 33 µM	2.06 µM	24.8 µM	–	> 47.2 µM	34.2 µM	88.7 nM	14.8 µM	773 nM	15700 nM	< 10 nM	< 14.7 nM	< 10.4 nM	< 10 nM	79.1 nM
Nc1c(C(=O)c2ccc(C#CCN3CCOCC3)cc2)cnn1-c1ccc(F)cc1	> 25 µM	> 25 µM	> 25 µM	> 25 µM	> 25 µM	–	> 25 µM	> 25 µM	> 25000 nM	> 25 µM	> 25000 nM	> 25000 nM	> 25000 nM	> 25000 nM	> 25000 nM	> 25000 nM	> 25000 nM
CC1NC(C(=O)O)Cc2cc(O)c(O)cc21 (stereo unspecified)	> 100 µM	> 100 µM	> 100 µM	> 100 µM	> 100 µM	–	> 100 µM	> 100 µM	–	> 100 µM	–	–	–	–	–	–	–
COc1cc(-c2cc(-c3cccs3)c(C#N)c(N3CCOCC3)n2)cc(OC)c1OC	> 100 µM	> 43.1 µM	> 100 µM	> 100 µM	> 94.1 µM	–	> 100 µM	> 100 µM	5080 nM	> 100 µM	8460 nM	2430 nM	3090 nM	> 100000 nM	> 39000 nM	4090 nM	> 58700 nM
CC(C)n1nc(C#Cc2cccc(O)c2)c2c(N)ncnc21	2.69 µM and 3.11 µM	6.5 µM and 4.29 µM	21.6 µM and 10.1 µM	5.09 µM and 4.76 µM	10.1 µM and 5.05 µM	–	9.4 µM and 4.7 µM	4.31 µM and 5 µM	2380 nM and 1870 nM	24.7 µM and 7.09 µM	721 nM and 751 nM	1560 nM and 1710 nM	1350 nM and 906 nM	894 nM and 532 nM	2570 nM and 2030 nM	1200 nM and 412 nM	1180 nM and 1300 nM
Nc1nc(=S)c2ncn(C3OC(CO)C(O)C3O)c2[nH]1 (stereo unspecified)	> 100 µM	> 87.6 µM	> 100 µM	> 100 µM	> 64.8 µM	–	10.3 µM	3.98 µM	400 nM	–	10500 nM	5110 nM	920 nM	3980 nM	633 nM	433 nM	273 nM
Cc1ccc(/C=C(/C#N)n2nnc3ncccc32)cc1	8.66 µM	7.51 µM	16.7 µM	9.66 µM	9.22 µM	–	19 µM	12.9 µM	1370 nM	> 100 µM	2470 nM	2280 nM	1450 nM	2600 nM	2390 nM	3410 nM	3170 nM
